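Five compound concentrations were applied to cells in 96-well plates for 48 hours; endpoints were derived by simple linear interpolation of the resulting dose-response curve. GI50: concentration for 50% inhibition of growth.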 Activity calls are given as the source filed them. No stated cut-off is given here; in the data, active = GI50 up to about 1.1 µM and inactive = higher.
Legend:
Assay in all cases: NCI-60 cell line screen, 48 h
RPMI-8226 = system: RPMI-8226
SK-MEL-2 = system: SK-MEL-2
UACC-257 = system: UACC-257
HOP-62 = system: HOP-62
HL-60 = system: HL-60
T47D = system: T47D
SF-268 = system: SF-268
SF-539 = system: SF-539
SK-OV-3 = system: SK-OV-3
U-251 = system: U-251
UACC-62 = system: UACC-62
LOX IMVI = system: LOX IMVI
MDA-MB-231 = system: MDA-MB-231
HCT-15 = system: HCT-15
A549 = system: A549
EKVX = system: EKVX
SK-MEL-28 = system: SK-MEL-28
OVCAR-8 = system: OVCAR-8
SF-295 = system: SF-295
KM12 = system: KM12

| Compound | GI50 (RPMI-8226) | GI50 (SK-MEL-2) | GI50 (UACC-257) | GI50 (HOP-62) | GI50 (HL-60) | GI50 (T47D) | GI50 (SF-268) | GI50 (SF-539) | GI50 (SK-OV-3) | GI50 (U-251) | GI50 (UACC-62) | GI50 (LOX IMVI) | GI50 (MDA-MB-231) | GI50 (HCT-15) [µM] | GI50 (A549) | GI50 (EKVX) | GI50 (SK-MEL-28) | GI50 (OVCAR-8) | GI50 (SF-295) | GI50 (KM12) |
| --- | --- | --- | --- | --- | --- | --- | --- | --- | --- | --- | --- | --- | --- | --- | --- | --- | --- | --- | --- | --- |
| OCC(CCc1ccccc1I)C1=CCC2(CC1)OCCO2 (stereo not given) | 53.6 µM (inactive) | 23.9 µM (inactive) | 21.6 µM (inactive) | 18.2 µM (inactive) | 3.53 µM (inactive) | 17.7 µM (inactive) | 17.8 µM (inactive) | 17.6 µM (inactive) | 39 µM (inactive) | 19.7 µM (inactive) | 16.4 µM (inactive) | 14.9 µM (inactive) | 23.9 µM (inactive) | 21.9 | 19.8 µM (inactive) | 21.4 µM (inactive) | 17.7 µM (inactive) | 17 µM (inactive) | 16.4 µM (inactive) | 16.4 µM (inactive) |
| C=C(CN)CO[Si](C)(C)C(C)(C)C | > 100 µM (inactive) | > 100 µM (inactive) | > 100 µM (inactive) | > 100 µM (inactive) | > 100 µM (inactive) | > 100 µM (inactive) | > 100 µM (inactive) | > 100 µM (inactive) | > 100 µM (inactive) | > 100 µM (inactive) | > 100 µM (inactive) | > 100 µM (inactive) | > 100 µM (inactive) | > 100 | > 100 µM (inactive) | > 100 µM (inactive) | > 100 µM (inactive) | > 100 µM (inactive) | > 100 µM (inactive) | > 100 µM (inactive) |
| COc1cc2c(cc1OC)C(=O)N(c1ccc(OCCN3CCCC3)cc1)C2 | > 100 µM (inactive) | > 100 µM (inactive) | > 100 µM (inactive) | > 100 µM (inactive) | > 100 µM (inactive) | > 100 µM (inactive) | > 100 µM (inactive) | > 100 µM (inactive) | > 100 µM (inactive) | > 100 µM (inactive) | > 100 µM (inactive) | > 100 µM (inactive) | > 100 µM (inactive) | > 100 | > 100 µM (inactive) | > 100 µM (inactive) | > 100 µM (inactive) | > 100 µM (inactive) | > 100 µM (inactive) | > 100 µM (inactive) |
| COc1ccc2c(c1)O[C@@H]1C(O)Oc3cc(OC)c(OC)cc3[C@]1(O)C2=O (stereo not given in full) | 44.8 µM (inactive) | > 100 µM (inactive) | 29 µM (inactive) | > 100 µM (inactive) | 32.1 µM (inactive) | 31.2 µM (inactive) | 34.3 µM (inactive) | > 100 µM (inactive) | > 100 µM (inactive) | 59 µM (inactive) | 78 µM (inactive) | 29.9 µM (inactive) | 72.3 µM (inactive) | > 100 | 9.1 µM (inactive) | 45.9 µM (inactive) | > 100 µM (inactive) | 94.6 µM (inactive) | 24 µM (inactive) | 79.3 µM (inactive) |
| CC1(C)CCC2(C(=O)OC3OC(CO)C(O)C(O)C3O)CCC3(C)C(=CCC4C5(C)CCC(OC6OC(CO)C(O)C(O)C6O)C(C)(C)C5CCC43C)C2C1 (stereo not given) | 4.18 µM (inactive) | 5.45 µM (inactive) | 16.9 µM (inactive) | > 25 µM (inactive) | 4.41 µM (inactive) | 6.4 µM (inactive) | 6.93 µM (inactive) | 5.4 µM (inactive) | > 25 µM (inactive) | 4.49 µM (inactive) | 8.67 µM (inactive) | 4.51 µM (inactive) | 9.98 µM (inactive) | > 25 | > 25 µM (inactive) | > 25 µM (inactive) | 6.93 µM (inactive) | 15.8 µM (inactive) | 15.2 µM (inactive) | 6.5 µM (inactive) |

Reference: ChEMBL document CHEMBL1201862, “PubChem BioAssay data set” (2004)
